What all share (type): biochemical
One test concerns the target T1, MMP 1 (Homo sapiens, UniProt P03956).
T1 construct: human recombinant fibroblast collagenase (truncated, mw=18,828, WAR, Radnor)
T1 sequence (P03956 100-269 limits assumed): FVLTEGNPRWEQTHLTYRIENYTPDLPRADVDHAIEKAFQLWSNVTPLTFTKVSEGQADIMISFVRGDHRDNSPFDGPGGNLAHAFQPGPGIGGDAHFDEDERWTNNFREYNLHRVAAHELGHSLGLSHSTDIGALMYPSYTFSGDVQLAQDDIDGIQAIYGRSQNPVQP
The test is described as follows: In vitro collagenase assay (human recombinant fibroblast collagenase). The following applies: for IC50: read-out: MMP 1 IC 50. The method, then:
The assay is based on the cleavage of a peptide substrate ((Dnp-Pro-Cha-Gly-Cys(iNe)-His-Ala-Lys(NMa)-NH2), Peptide International, Inc.) by collag,enase releasing the fluorescent NMa group which is quantitated on the fluorometer. Dnp quenches the NiIa fluorescence in the intact substrate. […] Substrate is dissolved in methanol and stored frozen in 1 mM aliquots. Collagenase is stored frozen in buffer in 25 µM aliquots. For the assay, substrate is dissolved in HCBC buffer to a final concentration of 10 μM and collagenase to a final concentration of 5 nM. Compounds are dissolved in methanol, DMSO, or HCBC. The methanol and DMSO are diluted in HCBC to <1.0%. Compounds are added to the 96 well plate containing enzyme and the reaction is started by the addition of substrate.
The slope of the line is calculated and represents the reaction rate.
The mean (x±sem) of the control rate is calculated and compared for statistical significance (p<0.05) with drug-treated rates using Dunnett's multiple comparison test.

Another test addresses T2, MMP 9 (Homo sapiens, UniProt P14780).
T2 construct: from tissue; host or cells: human neutrophils
Nature of the test: In vitro gelatinase assay (human neutrophil gelatinase B). As to conditions: for IC50: read-out: MMP 9 IC 50. The procedure: The assay is based on the cleavage of the thiopeptide substrate ((Ac-Pro-Leu-Gly(2 mercapto-4 methyl-pentanoyl)-Leu-Gly-OEt), Bachem Bioscience) by the enzyme, gelatinase, releasing the substrate product which reacts calorimetrically with DTNB ((5,5′-dithio-bis(2-nitro-benzoic acid)). The enzyme activity is measured by the rate of the color increase.
The thiopeptide substrate is made up fresh as a 20 mM stock in 100% DMSO and the DTNB is dissolved in 100% DMSO as a 100 mM stock and stored in dark at room temperature. Both the substrate and DTNB are diluted together to 1 mM with substrate buffer (50 mM HEPES pH 7.5, 5 mM CaCl2) before use. The stock of human neutrophil gelatinase B is diluted with assay buffer (50 mnM HEPES pH 7.5, 5 mM CaCl2, 0.02% Brij) to a final concentration of 0.15 mnM.
The increase in OD405 is plotted and the slope of the line is calculated which represents the reaction rate.

A further test has as its target MMP 13 (Homo sapiens, UniProt P45452). Nature of the test: MMP 13 inhibition (manual). The following applies: for IC50: read-out: MMP 13 IC 50.
In the next test the target is T3, TACE (Homo sapiens, UniProt P78536).
T3 construct: purchased Immunex
T3 sequence (P78536 215-824): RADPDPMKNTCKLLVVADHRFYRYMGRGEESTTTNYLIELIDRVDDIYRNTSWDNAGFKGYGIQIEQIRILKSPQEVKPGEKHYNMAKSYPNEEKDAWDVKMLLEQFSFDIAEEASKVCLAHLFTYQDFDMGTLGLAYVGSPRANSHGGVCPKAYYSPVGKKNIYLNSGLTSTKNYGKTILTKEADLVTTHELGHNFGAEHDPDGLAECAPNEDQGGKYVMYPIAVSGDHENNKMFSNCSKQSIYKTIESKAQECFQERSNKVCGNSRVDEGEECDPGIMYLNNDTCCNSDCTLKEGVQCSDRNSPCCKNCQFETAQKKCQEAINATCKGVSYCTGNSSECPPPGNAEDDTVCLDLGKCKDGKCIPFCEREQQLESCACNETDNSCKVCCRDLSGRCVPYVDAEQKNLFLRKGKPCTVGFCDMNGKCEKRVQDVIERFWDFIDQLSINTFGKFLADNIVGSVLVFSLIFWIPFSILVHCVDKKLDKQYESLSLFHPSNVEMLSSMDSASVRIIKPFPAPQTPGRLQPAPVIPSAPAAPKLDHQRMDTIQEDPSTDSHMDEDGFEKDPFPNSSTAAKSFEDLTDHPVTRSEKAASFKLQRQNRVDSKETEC
Nature of the test: Procedure for measuring TACE inhibition. As to conditions: for IC50: read-out: TACE IC 50; for inhibition at 10 µM: read-out: TACE % inhibition at 10 micromolar (*). The procedure: Using 96-well black microtiter plates, each well receives a solution composed of 10 μL TACE (Inmunex, final concentration 1 μg/mL), 70 μL Tris buffer, pH 7.4 containing 10% glycerol (final concentration 10 mM), and 10 μL of test compound solution in DMSO ([…], DMSO concentration <1%) and incubated for 10 minutes at room temperature. The reaction is initiated by addition of a fluorescent peptidyl substrate (final concentration 100 μM to each well and then shaking on a shaker for 5 sec.
The reaction is read (excitation 340 nm, emission 420 nm) for 10 min. and the increase in fluorescence over time is plotted as a linear line. The slope of the line is calculated and represents the reaction rate.
The mean (xtsem) of the control rate is calculated and compared for statistical significance (p<0.05) with drug-treated rates using Dunnett's multiple comparison test.

T2 sequence (P14780 94-707): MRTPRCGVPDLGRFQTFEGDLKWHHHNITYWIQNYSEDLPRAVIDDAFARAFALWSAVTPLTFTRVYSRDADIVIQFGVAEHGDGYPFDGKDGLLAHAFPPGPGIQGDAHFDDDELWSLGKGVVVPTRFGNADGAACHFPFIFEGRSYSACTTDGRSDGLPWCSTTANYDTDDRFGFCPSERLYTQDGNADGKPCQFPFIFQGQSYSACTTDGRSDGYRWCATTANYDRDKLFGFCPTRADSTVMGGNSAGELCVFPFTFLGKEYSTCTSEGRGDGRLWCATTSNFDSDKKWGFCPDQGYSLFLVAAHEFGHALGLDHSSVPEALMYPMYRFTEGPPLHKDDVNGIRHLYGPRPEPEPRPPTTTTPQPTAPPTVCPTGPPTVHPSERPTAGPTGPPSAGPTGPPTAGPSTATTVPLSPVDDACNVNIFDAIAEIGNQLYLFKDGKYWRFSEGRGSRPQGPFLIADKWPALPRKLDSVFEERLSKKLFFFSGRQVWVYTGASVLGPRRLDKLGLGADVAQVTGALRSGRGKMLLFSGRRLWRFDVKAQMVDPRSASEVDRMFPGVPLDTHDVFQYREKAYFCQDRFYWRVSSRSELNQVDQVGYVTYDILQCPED

As to “2-[8-(1-carboxy-ethanesulfonyl)-octane-1-sulfonyl]-propionic acid hydroxyamide [Example 49]”, the “MMP 1 % inhibition at 1 micromolar” value on MMP 1 (1 micromolar) is on record as 10.1%. Moreover, the “MMP 9 % inhibition at 1 micromolar” value at MMP 9 (1 micromolar) is listed as 23.7%. Besides, the “MMP 13 % inhibition at 1 micromolar” value on MMP 13 (1 micromolar) was 54.6%.
On to `CCCCCC(C(=O)NO)[S+]([O-])c1ccc(OC)cc1` (single isomer, unassigned) [Example 81b, 2S*-(4-methoxy-phenyl-R*-sulfinyl)-heptanoic acid hydroxyamide], for which the IC50 at MMP 1 is 3760 nM; on MMP 9, 154 nM; at MMP 13, 15.7 nM; at TACE, 228 nM.
The corresponding values for `CCN1CCC(C(=O)NO)(S(=O)(=O)c2ccc(Oc3ccc(Cl)cc3)cc2)CC1` [Example 250, 4-[4-(4-chloro-phenoxy)-benzenesulfonyl]1-ethyl-piperidine-4-carboxylic acid hydroxyamide] are 1720 nM, 1.6 nM, 0.8 nM and 413 nM.
For the compound `CCCCN1CCC(C(=O)NO)(S(=O)(=O)c2ccc(Oc3ccc(Cl)cc3)cc2)CC1` [Example 251], the IC50 at MMP 1 was 1070 nM; at MMP 9, 0.8 nM; at MMP 13 it was 0.9 nM; at TACE it was 301 nM.
Regarding `O=C(NO)C1(S(=O)(=O)c2ccc(Oc3ccc(Cl)cc3)cc2)CCN(Cc2ccccc2)CC1` [Example 252, 1-Benzyl-4-[4-(4-chloro-phenoxy)-benzenesulfonyl]-piperidine-4-carboxylic acid hydroxyamide], the values for the IC50 at MMP 1, on MMP 9 and at MMP 13 were 801 nM, 1.1 nM and 0.9 nM, respectively.
For `CCCCN1CCC(C(=O)NO)(S(=O)(=O)c2ccc(OCCC(C)C)cc2)CC1` [Example 256, 1 -Butyl-4-[4-(3-methyl-butoxy)-benzenesulfonyl]-piperidine-4-carboxylic acid hydroxyamide], the IC50 was determined as 10000 nM at MMP 1, 7.2 nM on MMP 9 and 2.9 nM on MMP 13. Also, the inhibition at 10 µM at TACE was determined as 43%.
For the compound `CCC(CC)COc1ccc(S(=O)(=O)C2(C(=O)NO)CCN(Cc3ccccc3)CC2)cc1` [Example 259, 1-Benzyl4-[4-(2-ethyl-butoxy)-benzenesulfonyl]-piperidine-4-carboxylic acid hydroxyamide], the values for the IC50 on MMP 1, at MMP 9 and on MMP 13 were 3160 nM, 14.3 nM and 5.3 nM, respectively. The inhibition at 10 µM at TACE was 39%.
`CCCCOc1ccc(S(=O)(=O)C2(C(=O)NO)CCN(Cc3ccc(Cl)c(Cl)c3)CC2)cc1` [Example 263, 1-(3,4-Dichlorobenzyl)-4-(4-butoxy-benzenesulfonyl)-piperidine-4-carboxylic acid hydroxyamide]: the IC50 on MMP 1 was determined as 3670 nM; at MMP 9, 20.3 nM; on MMP 13, 5.2 nM. On TACE, the inhibition at 10 µM came out at 57.7%.
Take `CN1CCC(C(=O)NO)(S(=O)(=O)c2ccc(OCc3ccc(Cl)cc3)cc2)CC1` [Example 264, [4-(4-Chloro-benzyloxy)benzenesulfonyl]-1-methylpiperidine-4-carboxylic acid hydroxamide]: the IC50 at MMP 1 is 4290 nM; on MMP 9, 2.9 nM; on MMP 13 it was 3.1 nM; on TACE, 182 nM.
The corresponding values for `CCCCOc1ccc(S(=O)(=O)C2(C(=O)NO)CCN(Cc3cccc(Oc4ccccc4)c3)CC2)cc1` [Example 265, 4-(4-Butoxy-benzenesulfonyl)-1-(3-phenoxy-benzyl)-piperidine-4-carboxylic acid hydroxamide] are 1940 nM, 9.3 nM, 7.8 nM and 1040 nM.
Take `Cc1ccc(CN2CCC(C(=O)NO)(S(=O)(=O)c3ccc(OCc4ccc(Cl)cc4)cc3)CC2)cc1` [Example 266, [4-(4-Chloro-benzyloxy)-benzenesulfonyl]-1-(4-methylbenzyl)-piperidine-4-carboxylic acid hydroxamide]: the IC50 on MMP 9 worked out at 6 nM; on MMP 13, 5.7 nM; on TACE, 421 nM.

The values above are taken from patent US6441023B1 (American Home Products Corporation, priority 1997, dated 2002).
